Consider 20 compounds from ChEMBL document CHEMBL1201862, “PubChem BioAssay data set” (2004).

Assay in all cases: DTP human tumour cell line panel, 48 h
For test [1], the system named is DMS-273.
Test [2] has as its system M19-MEL.
Test [3] relates to SNB-78.
Test [4] has as its system RXF 631.
The subject of test [5] is KM-20L2.
Test [6] deals with DLD-1.
The subject of test [7] is LXFL 529.
In test [8] the test system is DMS-114.
Test [9] relates to HOP-18.

The structures appear in SMILES notation.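 Each compound was tested at five concentrations against cells in 96-well plates for 48 hours. GI50 is the concentration that inhibits growth by half.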 Calls of active or inactive are those of the source. No stated cut-off is given here; in the data, active = GI50 up to about 1.1 µM and inactive = higher.

In general, GI50 refers to the concentration at which growth is held to half of that of the control. As to `NC(=O)c1csc(C2OC(COP(=O)(O)CP(=O)(O)OCC3OC(n4cnc5c(N)ncnc54)C(O)C3O)C(O)C2O)n1` (stereo not given), the GI50 in test [1] is 85.5 µM (inactive); in [2], > 100 µM (inactive); in [3], > 100 µM (inactive); in test [4] it was > 100 µM (inactive); in [5], > 100 µM (inactive); in [6], > 100 µM (inactive). Moreover, the GI50 in [7], in [8] and in [9] was > 100 µM (inactive) each time.

For the compound `OCCN(CCO)c1cccc(N(CCO)CCO)n1`, the GI50 in test [1], in test [2], in [3], in test [4], in test [5] and in test [6] was > 100 µM (inactive) each time. Besides, the GI50 in [7] and in [8] was > 100 µM (inactive) in each case.

Turning to `CCCCN(CCCC)CC(C(=O)Nc1ccccc1)/C(C)=N\NC(=O)c1ccncc1` (stereo not given), the GI50 in test [1] was > 100 µM (inactive); in [2] it was 68.9 µM (inactive); in [3], > 100 µM (inactive); in test [5] it was > 100 µM (inactive); in test [6], > 100 µM (inactive); in test [8], 63 µM (inactive).

Regarding `Cc1cccc2c(O)cc(=O)oc12`, the GI50 in test [2], in test [3], in test [5], in test [6], in test [7] and in [8] was > 100 µM (inactive) each time. Moreover, the GI50 in [9] was > 100 µM (inactive).

Turning to `CCn1c(=O)nc2n(-c3ccccc3)c3ccccc3nc-2c1=O`, the GI50 in [1] is 12.7 µM (inactive); in test [2] it was 10.6 µM (inactive); in test [3], 49.8 µM (inactive); in test [5], 10 µM (inactive); in [6], 28.3 µM (inactive); in [7], 28.4 µM (inactive). Moreover, the GI50 in test [8] was 11.1 µM (inactive); in test [9], 61.4 µM (inactive).

As to `CCOC(=O)c1cc2c(cn1)[nH]c1cccc(N)c12`, the GI50 in test [1], in [2], in test [3], in test [6], in test [7] and in [8] was > 100 µM (inactive) throughout. In test [9], the GI50 was > 100 µM (inactive).

On to `C=CCN(N=O)C(=O)NCCCC(NC(C)=O)C(=O)NCc1ccccc1` (stereo not given), for which the GI50 in test [1], in [2], in [4], in test [5], in test [7] and in test [8] was > 100 µM (inactive) throughout. Also, the GI50 in [9] is 10.9 µM (inactive).

For the compound `COC1CC(OC)C2OC(c3ccccc3)OCC2O1` (stereo not given), the GI50 in test [2], in test [3], in test [5], in test [6], in [7] and in [9] was > 100 µM (inactive) each time.

For `Cn1ncc2cc3c(Nc4ccc(Cl)cc4)cccc3nc21`, the GI50 in [1] is > 10 µM (inactive); in test [2], 22.1 µM (inactive); in [3] it was 34 µM (inactive); in [4], 17.7 µM (inactive); in [5] it was 14.7 µM (inactive); in test [6], 20.3 µM (inactive). For the same compound, the GI50 is 15.6 µM (inactive) in test [7] and 12.9 µM (inactive) in test [8].

On to `CC(C)(C)C(=O)Cc1cc2c(cc1C(=O)O)S(=O)(=O)NC(C(C)(C)C)=C2`, for which the GI50 in test [2], in test [3], in test [6], in [7] and in test [8] was > 100 µM (inactive) each time.

Take `O=c1[nH]c2cccccc-2c1-c1nc2ccccc2[nH]1`: the GI50 was 15.5 µM (inactive) in [1]; 34.2 µM (inactive) in test [2]; 25.7 µM (inactive) in test [3]; 46.5 µM (inactive) in [5]; 32.4 µM (inactive) in [6]; 22.2 µM (inactive) in [7]. Further, in test [8], the GI50 was 10.3 µM (inactive).

In the case of `COc1ccccc1C(N)c1ccccc1` (stereo not given), the GI50 in [1], in test [2], in test [3], in test [5], in test [6] and in test [7] was > 100 µM (inactive) each time. Also, the GI50 in test [8] and in test [9] was > 100 µM (inactive) each time.

`O=C(O)C12C=CC(C1)c1ccccc12` (stereo not given): the GI50 in test [1], in test [2], in test [5], in test [6], in test [7] and in [8] was > 100 µM (inactive) throughout. Also, the GI50 in test [9] is > 100 µM (inactive).

For the compound `Cc1ccc(NC(=O)CCC(=O)C2CC(=O)CC/C2=N\NC(=O)c2cc3ccccc3cc2O)cc1C` (stereo not given), the GI50 in test [1] was 13.2 µM (inactive); in test [2], 27.4 µM (inactive); in test [3] it was 28.6 µM (inactive); in test [4], 32.6 µM (inactive); in test [5] it was 27.5 µM (inactive); in test [6], 30.5 µM (inactive). Moreover, the GI50 is 21.4 µM (inactive) in [7], 19.8 µM (inactive) in test [8] and 21.8 µM (inactive) in test [9].

Take `COc1ccc(Cc2nccc3cc(OC)c(OC)cc23)cc1`: the GI50 was 98.4 µM (inactive) in [2]; > 100 µM (inactive) in [3]; > 100 µM (inactive) in test [5]; > 100 µM (inactive) in test [6]; 28 µM (inactive) in test [7]; 29.7 µM (inactive) in [8].

On to `COc1ccc(C2S/C(=C\c3cc(OC)c(OC)c(OC)c3)C(=O)N2NC(=O)Cc2ccccc2)cc1` (stereo not given), for which the GI50 in [1] was > 100 µM (inactive); in [2], > 100 µM (inactive); in [6], 94.2 µM (inactive); in test [7], 61.9 µM (inactive); in test [8] it was 72.9 µM (inactive); in [9], > 100 µM (inactive).

`COC(=O)c1cc(C)n(NC(=O)OC(C)(C)C)c1C`: the GI50 was > 100 µM (inactive) in [1]; > 100 µM (inactive) in test [2]; 95.1 µM (inactive) in test [3]; > 100 µM (inactive) in [5]; > 100 µM (inactive) in test [6]; > 100 µM (inactive) in test [7]. Also, the GI50 in test [8] was > 100 µM (inactive).

As to `C=C1C(=O)C23C(O)CC4C(C)(C)CCC(O)C4(C)C2CC(OC(C)=O)C1[C@H]3O` (stereo not given in full), the GI50 in test [1] was 1.65 µM (inactive); in test [2], 1.61 µM (inactive); in test [3], 0.925 µM (active); in [4] it was 4.8 µM (inactive); in test [5] it was 3.15 µM (inactive); in test [6], 1.69 µM (inactive). The GI50 in test [7] is 1.07 µM (active); in test [9], 2.27 µM (inactive).

On to `CCCCCCCCCCCCCCCC[N+](C)(C)Cc1ccc(C[N+](C)(C)CCCCCCCCCCCCCCCC)cc1`, for which the GI50 in test [1] was 1.98 µM (inactive); in test [2] it was 2.67 µM (inactive); in test [3] it was 2.73 µM (inactive); in [4] it was 2.19 µM (inactive); in [5], 3.62 µM (inactive); in test [6], 3.48 µM (inactive). The GI50 in test [7] is 8.09 µM (inactive); in [8], 1.85 µM (inactive); in test [9], 1.67 µM (inactive).

As for `Nc1n[nH]c(N)n1` [GUANAZOLE], the GI50 is 914 µM (inactive) in test [1]; > 10000 µM (inactive) in [2]; 5250 µM (inactive) in [3]; 7890 µM (inactive) in test [5]; 9840 µM (inactive) in test [6]; 1800 µM (inactive) in test [8]. For the same compound, the GI50 in test [9] is 5610 µM (inactive).
